Experimental data from paper PMC4823954, “From fighting depression to conquering tumors: a novel tricyclic thiazepine compound as a tubulin polymerization inhibitor” (Cell Death & Disease, 2016).

Columns and labels:
Assay in all cases: KINOMEscan
Assay type in all cases: binding
Conditions in all cases: read-out: % Ctrl
AKT2 = biological target: T1, AKT2 (Homo sapiens, UniProt P31751)
T1 construct: purchased DiscoveRx KINOMEscan
Procedure, shortened: (§1)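 Competition binding panel of 442 non-mutant kinases: test compound at 5 and 10 μM competed with an active-site-directed ligand for 1 h with shaking. Bound kinase was eluted with 0.5 μM ligand and quantified by qPCR; %Ctrl = (compound − positive control)/(DMSO − positive control) × 100, lower meaning tighter binding.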

EPHA3 = biological target: T2, EPHA3 (Homo sapiens, UniProt P29320)
T2 construct: purchased DiscoveRx KINOMEscan
Procedure, shortened: as §1

TIE2 = biological target: T3, TIE2 (Homo sapiens, UniProt Q02763)
T3 construct: purchased DiscoveRx KINOMEscan
Procedure, shortened: as §1

IRAK1 = biological target: T4, IRAK1 (Homo sapiens, UniProt P51617)
T4 construct: purchased DiscoveRx KINOMEscan
Procedure, shortened: as §1

LKB1 = biological target: T5, LKB1 (Homo sapiens, UniProt Q15831)
T5 construct: purchased DiscoveRx KINOMEscan
Procedure, shortened: as §1

RET(V804M) = biological target: T6, RET(V804M) (Homo sapiens, UniProt P07949, V804M)
T6 construct: purchased DiscoveRx KINOMEscan

CAMK4 = biological target: T7, CAMK4 (Homo sapiens, UniProt Q16566)
T7 construct: purchased DiscoveRx KINOMEscan
Procedure, shortened: as §1

NEK2 = biological target: T8, NEK2 (Homo sapiens, UniProt P51955)
T8 construct: purchased DiscoveRx KINOMEscan
Procedure, shortened: as §1

PRKD3 = biological target: T9, PRKD3 (Homo sapiens, UniProt O94806)
T9 construct: purchased DiscoveRx KINOMEscan
Procedure, shortened: as §1

ANKK1 = biological target: T10, ANKK1 (Homo sapiens, UniProt Q8NFD2)
T10 construct: purchased DiscoveRx KINOMEscan
Procedure, shortened: as §1

LZK = biological target: T11, LZK (Homo sapiens, UniProt O43283)
T11 construct: purchased DiscoveRx KINOMEscan
Procedure, shortened: as §1

PIK3CG = biological target: T12, PIK3CG (Homo sapiens, UniProt P48736)
T12 construct: purchased DiscoveRx KINOMEscan
Procedure, shortened: as §1

EPHB1 = biological target: T13, EPHB1 (Homo sapiens, UniProt P54762)
T13 construct: purchased DiscoveRx KINOMEscan
Procedure, shortened: as §1

RET = biological target: T14, RET (Homo sapiens, UniProt P07949)
T14 construct: purchased DiscoveRx KINOMEscan
Procedure, shortened: as §1

PDGFRB = biological target: T15, PDGFRB (Homo sapiens, UniProt P09619)
T15 construct: purchased DiscoveRx KINOMEscan
Procedure, shortened: as §1

LIMK1 = biological target: T16, LIMK1 (Homo sapiens, UniProt P53667)
T16 construct: purchased DiscoveRx KINOMEscan
Procedure, shortened: as §1

CSNK2A2 = biological target: T17, CSNK2A2 (Homo sapiens, UniProt P19784)
T17 construct: purchased DiscoveRx KINOMEscan
Procedure, shortened: as §1

NEK3 = biological target: T18, NEK3 (Homo sapiens, UniProt P51956)
T18 construct: purchased DiscoveRx KINOMEscan
Procedure, shortened: as §1

ROCK2 = biological target: T19, ROCK2 (Homo sapiens, UniProt O75116)
T19 construct: purchased DiscoveRx KINOMEscan
Procedure, shortened: as §1

RIOK1 = biological target: T20, RIOK1 (Homo sapiens, UniProt Q9BRS2)
T20 construct: purchased DiscoveRx KINOMEscan
Procedure, shortened: as §1

TSSK1B = biological target: T21, TSSK1B (Homo sapiens, UniProt Q9BXA7)
T21 construct: purchased DiscoveRx KINOMEscan
Procedure, shortened: as §1

ALK = biological target: T22, ALK (Homo sapiens, UniProt Q9UM73)
T22 construct: purchased DiscoveRx KINOMEscan
Procedure, shortened: as §1

PAK1 = biological target: T23, PAK1 (Homo sapiens, UniProt Q13153)
T23 construct: purchased DiscoveRx KINOMEscan
Procedure, shortened: as §1

ABL2 = biological target: T24, ABL2 (Homo sapiens, UniProt P42684)
T24 construct: purchased DiscoveRx KINOMEscan
Procedure, shortened: as §1

CDKL5 = biological target: T25, CDKL5 (Homo sapiens, UniProt O76039)
T25 construct: purchased DiscoveRx KINOMEscan
Procedure, shortened: as §1

BRAF = biological target: T26, BRAF (Homo sapiens, UniProt P15056)
T26 construct: purchased DiscoveRx KINOMEscan
Procedure, shortened: as §1

HIPK2 = biological target: T27, HIPK2 (Homo sapiens, UniProt Q9H2X6)
T27 construct: purchased DiscoveRx KINOMEscan
Procedure, shortened: as §1

MERTK = biological target: T28, MERTK (Homo sapiens, UniProt Q12866)
T28 construct: purchased DiscoveRx KINOMEscan
Procedure, shortened: as §1

CDK9 = biological target: T29, CDK9 (Homo sapiens, UniProt P50750)
T29 construct: purchased DiscoveRx KINOMEscan
Procedure, shortened: as §1

DCAMKL1 = biological target: T30, DCAMKL1 (Homo sapiens, UniProt O15075)
T30 construct: purchased DiscoveRx KINOMEscan
Procedure, shortened: as §1

PRKG2 = biological target: T31, PRKG2 (Homo sapiens, UniProt Q13237)
T31 construct: purchased DiscoveRx KINOMEscan
Procedure, shortened: as §1

T4 sequence (P51617 whole entry): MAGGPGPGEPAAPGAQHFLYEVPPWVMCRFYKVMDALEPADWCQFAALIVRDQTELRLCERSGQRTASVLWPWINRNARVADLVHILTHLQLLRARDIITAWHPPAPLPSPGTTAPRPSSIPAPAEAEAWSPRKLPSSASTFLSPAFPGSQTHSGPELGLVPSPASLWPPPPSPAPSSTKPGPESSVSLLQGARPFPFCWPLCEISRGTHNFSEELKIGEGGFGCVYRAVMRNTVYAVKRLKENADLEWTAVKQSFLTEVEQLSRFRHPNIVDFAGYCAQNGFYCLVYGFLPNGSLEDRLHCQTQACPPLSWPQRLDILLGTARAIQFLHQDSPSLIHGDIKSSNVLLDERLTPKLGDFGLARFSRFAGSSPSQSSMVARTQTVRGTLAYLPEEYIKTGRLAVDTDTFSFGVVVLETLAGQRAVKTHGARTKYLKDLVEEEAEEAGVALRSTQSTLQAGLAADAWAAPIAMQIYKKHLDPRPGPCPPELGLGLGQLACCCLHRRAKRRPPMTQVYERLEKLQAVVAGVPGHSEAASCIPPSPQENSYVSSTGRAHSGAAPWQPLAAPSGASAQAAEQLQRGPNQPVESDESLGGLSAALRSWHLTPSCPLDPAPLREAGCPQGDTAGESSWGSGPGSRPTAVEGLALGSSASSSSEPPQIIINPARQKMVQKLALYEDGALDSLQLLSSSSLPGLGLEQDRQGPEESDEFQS
T3 sequence (Q02763 23-1124): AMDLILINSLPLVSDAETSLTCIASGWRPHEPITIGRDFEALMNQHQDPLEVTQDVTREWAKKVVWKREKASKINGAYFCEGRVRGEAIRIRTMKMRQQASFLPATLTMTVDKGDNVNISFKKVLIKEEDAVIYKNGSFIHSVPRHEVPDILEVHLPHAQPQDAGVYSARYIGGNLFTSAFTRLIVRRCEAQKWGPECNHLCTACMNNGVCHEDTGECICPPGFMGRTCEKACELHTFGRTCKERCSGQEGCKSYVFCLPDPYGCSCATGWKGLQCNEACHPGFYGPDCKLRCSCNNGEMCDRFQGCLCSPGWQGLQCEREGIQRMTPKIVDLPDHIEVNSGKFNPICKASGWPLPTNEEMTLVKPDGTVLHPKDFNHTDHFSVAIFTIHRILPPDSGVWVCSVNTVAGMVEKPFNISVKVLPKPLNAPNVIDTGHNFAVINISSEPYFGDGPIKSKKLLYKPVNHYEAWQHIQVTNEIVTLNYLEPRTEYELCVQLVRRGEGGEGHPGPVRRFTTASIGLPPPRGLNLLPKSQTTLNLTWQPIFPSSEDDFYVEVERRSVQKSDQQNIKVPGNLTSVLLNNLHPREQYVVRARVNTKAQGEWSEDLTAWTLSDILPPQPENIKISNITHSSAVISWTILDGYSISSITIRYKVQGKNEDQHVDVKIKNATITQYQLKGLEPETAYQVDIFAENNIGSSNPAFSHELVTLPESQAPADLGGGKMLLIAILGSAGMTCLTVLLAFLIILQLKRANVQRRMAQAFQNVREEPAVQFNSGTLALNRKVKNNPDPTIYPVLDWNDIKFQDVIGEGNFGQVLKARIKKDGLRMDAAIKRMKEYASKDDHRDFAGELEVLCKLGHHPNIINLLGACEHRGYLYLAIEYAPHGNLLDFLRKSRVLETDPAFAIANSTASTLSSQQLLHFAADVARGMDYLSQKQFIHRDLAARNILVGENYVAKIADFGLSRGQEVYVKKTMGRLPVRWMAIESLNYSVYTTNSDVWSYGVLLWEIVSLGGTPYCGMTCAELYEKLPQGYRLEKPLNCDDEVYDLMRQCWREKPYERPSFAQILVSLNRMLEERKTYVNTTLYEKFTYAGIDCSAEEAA
T15 sequence (P09619 33-1106): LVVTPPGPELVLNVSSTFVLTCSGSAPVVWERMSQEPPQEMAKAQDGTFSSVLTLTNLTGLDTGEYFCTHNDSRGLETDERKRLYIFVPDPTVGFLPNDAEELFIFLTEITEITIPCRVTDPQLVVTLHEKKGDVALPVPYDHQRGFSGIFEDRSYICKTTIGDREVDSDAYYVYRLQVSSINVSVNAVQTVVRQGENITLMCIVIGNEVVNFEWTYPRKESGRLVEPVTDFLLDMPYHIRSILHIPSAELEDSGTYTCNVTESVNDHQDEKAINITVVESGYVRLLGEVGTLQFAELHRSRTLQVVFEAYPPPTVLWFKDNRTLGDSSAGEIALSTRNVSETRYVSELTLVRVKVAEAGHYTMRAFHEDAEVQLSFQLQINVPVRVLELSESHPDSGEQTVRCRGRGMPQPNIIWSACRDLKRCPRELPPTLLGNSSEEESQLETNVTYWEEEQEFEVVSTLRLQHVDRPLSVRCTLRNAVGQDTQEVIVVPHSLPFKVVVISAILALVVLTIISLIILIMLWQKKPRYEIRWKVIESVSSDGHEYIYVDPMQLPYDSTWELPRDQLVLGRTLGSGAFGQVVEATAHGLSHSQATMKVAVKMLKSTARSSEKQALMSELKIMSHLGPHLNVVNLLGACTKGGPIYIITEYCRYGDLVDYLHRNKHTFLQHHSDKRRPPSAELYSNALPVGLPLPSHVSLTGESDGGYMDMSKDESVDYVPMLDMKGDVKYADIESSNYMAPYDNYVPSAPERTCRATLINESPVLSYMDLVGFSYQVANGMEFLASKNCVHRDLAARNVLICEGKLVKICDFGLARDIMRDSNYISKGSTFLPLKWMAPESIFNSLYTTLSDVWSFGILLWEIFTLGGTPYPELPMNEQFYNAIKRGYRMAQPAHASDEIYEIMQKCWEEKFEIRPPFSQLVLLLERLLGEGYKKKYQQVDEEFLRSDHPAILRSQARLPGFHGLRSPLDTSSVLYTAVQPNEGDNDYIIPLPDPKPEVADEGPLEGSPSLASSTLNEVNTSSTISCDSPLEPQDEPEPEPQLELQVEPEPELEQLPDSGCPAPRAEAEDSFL
T11 sequence (O43283 whole entry): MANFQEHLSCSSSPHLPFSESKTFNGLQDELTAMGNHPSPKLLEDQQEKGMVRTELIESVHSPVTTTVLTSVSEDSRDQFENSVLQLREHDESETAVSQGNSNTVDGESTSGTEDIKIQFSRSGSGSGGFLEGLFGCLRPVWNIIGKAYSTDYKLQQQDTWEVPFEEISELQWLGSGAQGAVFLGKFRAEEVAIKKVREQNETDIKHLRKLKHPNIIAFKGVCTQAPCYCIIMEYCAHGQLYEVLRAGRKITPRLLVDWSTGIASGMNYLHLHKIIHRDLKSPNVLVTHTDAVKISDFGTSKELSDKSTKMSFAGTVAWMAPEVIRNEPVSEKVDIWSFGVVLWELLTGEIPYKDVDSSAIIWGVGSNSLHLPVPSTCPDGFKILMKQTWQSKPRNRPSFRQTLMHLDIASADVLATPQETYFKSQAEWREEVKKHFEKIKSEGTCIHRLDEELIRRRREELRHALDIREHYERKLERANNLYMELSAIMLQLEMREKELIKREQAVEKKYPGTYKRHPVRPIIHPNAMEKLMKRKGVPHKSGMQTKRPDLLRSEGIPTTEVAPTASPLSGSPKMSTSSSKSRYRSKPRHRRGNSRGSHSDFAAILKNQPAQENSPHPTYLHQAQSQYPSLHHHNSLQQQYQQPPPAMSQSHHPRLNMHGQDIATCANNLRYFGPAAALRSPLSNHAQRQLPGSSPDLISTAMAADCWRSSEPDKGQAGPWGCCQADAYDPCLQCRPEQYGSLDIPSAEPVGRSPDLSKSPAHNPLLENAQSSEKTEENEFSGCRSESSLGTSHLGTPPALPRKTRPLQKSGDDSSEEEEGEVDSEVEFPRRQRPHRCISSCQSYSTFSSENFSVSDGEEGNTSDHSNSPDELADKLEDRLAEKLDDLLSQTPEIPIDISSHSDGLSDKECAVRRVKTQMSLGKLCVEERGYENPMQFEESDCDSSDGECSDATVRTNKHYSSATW
T31 sequence (Q13237 whole entry): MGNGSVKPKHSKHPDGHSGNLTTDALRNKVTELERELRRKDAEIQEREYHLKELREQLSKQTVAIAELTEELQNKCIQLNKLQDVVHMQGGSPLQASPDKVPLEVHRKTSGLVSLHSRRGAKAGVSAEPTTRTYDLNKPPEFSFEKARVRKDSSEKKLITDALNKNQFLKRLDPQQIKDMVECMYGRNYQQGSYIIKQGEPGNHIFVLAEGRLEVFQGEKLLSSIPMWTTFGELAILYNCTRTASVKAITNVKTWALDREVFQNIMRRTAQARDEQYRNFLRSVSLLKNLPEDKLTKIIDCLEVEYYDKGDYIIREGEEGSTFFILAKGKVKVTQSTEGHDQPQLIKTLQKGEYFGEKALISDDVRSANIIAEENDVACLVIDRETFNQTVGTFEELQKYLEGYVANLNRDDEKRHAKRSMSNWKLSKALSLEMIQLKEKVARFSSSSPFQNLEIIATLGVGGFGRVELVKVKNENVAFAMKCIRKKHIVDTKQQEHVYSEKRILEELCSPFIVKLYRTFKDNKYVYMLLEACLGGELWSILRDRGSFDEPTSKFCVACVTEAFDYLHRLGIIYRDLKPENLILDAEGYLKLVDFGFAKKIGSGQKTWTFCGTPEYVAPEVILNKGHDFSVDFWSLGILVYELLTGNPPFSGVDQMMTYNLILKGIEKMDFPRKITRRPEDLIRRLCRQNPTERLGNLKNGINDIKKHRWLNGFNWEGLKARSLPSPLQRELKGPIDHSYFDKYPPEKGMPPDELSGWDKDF
T29 sequence (P50750 whole entry): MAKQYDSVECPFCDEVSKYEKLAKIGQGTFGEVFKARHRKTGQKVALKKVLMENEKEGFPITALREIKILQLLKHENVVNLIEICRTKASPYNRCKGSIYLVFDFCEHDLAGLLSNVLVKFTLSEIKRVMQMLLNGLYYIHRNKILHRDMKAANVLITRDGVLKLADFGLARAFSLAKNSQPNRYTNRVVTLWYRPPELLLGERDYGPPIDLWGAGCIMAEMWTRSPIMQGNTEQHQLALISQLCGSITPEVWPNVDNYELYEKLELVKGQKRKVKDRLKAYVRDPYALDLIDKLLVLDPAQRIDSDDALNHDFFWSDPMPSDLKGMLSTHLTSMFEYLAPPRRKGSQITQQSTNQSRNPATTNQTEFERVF

SMILES: Cc1ccc(C2=Nc3cccnc3S(=O)(=O)c3ccccc32)cc1 [TBPT, 6-(p-tolyl)benzo[f] pyrido[2,3-b][1,4] thiazepine 11,11-dioxide]
- remaining binding at 5 µM (AKT2; 5 μM): 76%
- remaining binding at 10 µM (AKT2; 10 μM): 100%
- remaining binding at 5 µM (EPHA3; 5 μM): 80%
- remaining binding at 10 µM (EPHA3; 10 μM): 100%
- remaining binding at 5 µM (TIE2; 5 μM): 100%
- remaining binding at 10 µM (TIE2; 10 μM): 91%
- remaining binding at 5 µM (IRAK1; 5 μM): 100%
- remaining binding at 10 µM (IRAK1; 10 μM): 93%
- remaining binding at 5 µM (LKB1; 5 μM): 100%
- remaining binding at 10 µM (LKB1; 10 μM): 89%
- remaining binding at 5 µM (RET(V804M); 5 μM): 84%
- remaining binding at 10 µM (RET(V804M); 10 μM): 96%
- remaining binding at 5 µM (CAMK4; 5 μM): 100%
- remaining binding at 10 µM (CAMK4; 10 μM): 93%
- remaining binding at 5 µM (NEK2; 5 μM): 92%
- remaining binding at 10 µM (NEK2; 10 μM): 81%
- remaining binding at 5 µM (PRKD3; 5 μM): 100%
- remaining binding at 10 µM (PRKD3; 10 μM): 78%
- remaining binding at 5 µM (ANKK1; 5 μM): 91%
- remaining binding at 10 µM (ANKK1; 10 μM): 72%
- remaining binding at 5 µM (LZK; 5 μM): 100%
- remaining binding at 10 µM (LZK; 10 μM): 93%
- remaining binding at 5 µM (PIK3CG; 5 μM): 89%
- remaining binding at 10 µM (PIK3CG; 10 μM): 80%
- remaining binding at 5 µM (EPHB1; 5 μM): 100%
- remaining binding at 10 µM (EPHB1; 10 μM): 100%
- remaining binding at 5 µM (RET; 5 μM): 100%
- remaining binding at 10 µM (RET; 10 μM): 87%
- remaining binding at 5 µM (PDGFRB; 5 μM): 68%
- remaining binding at 10 µM (PDGFRB; 10 μM): 100%
- remaining binding at 5 µM (LIMK1; 5 μM): 100%
- remaining binding at 10 µM (LIMK1; 10 μM): 100%
- remaining binding at 5 µM (CSNK2A2; 5 μM): 100%
- remaining binding at 10 µM (CSNK2A2; 10 μM): 100%
- remaining binding at 5 µM (NEK3; 5 μM): 100%
- remaining binding at 10 µM (NEK3; 10 μM): 100%
- remaining binding at 5 µM (ROCK2; 5 μM): 100%
- remaining binding at 10 µM (ROCK2; 10 μM): 92%
- remaining binding at 5 µM (RIOK1; 5 μM): 83%
- remaining binding at 10 µM (RIOK1; 10 μM): 76%
- remaining binding at 5 µM (TSSK1B; 5 μM): 90%
- remaining binding at 10 µM (TSSK1B; 10 μM): 100%
- remaining binding at 5 µM (ALK; 5 μM): 100%
- remaining binding at 10 µM (ALK; 10 μM): 71%
- remaining binding at 5 µM (PAK1; 5 μM): 81%
- remaining binding at 10 µM (PAK1; 10 μM): 92%
- remaining binding at 5 µM (ABL2; 5 μM): 80%
- remaining binding at 10 µM (ABL2; 10 μM): 97%
- remaining binding at 5 µM (CDKL5; 5 μM): 100%
- remaining binding at 10 µM (CDKL5; 10 μM): 100%
- remaining binding at 5 µM (BRAF; 5 μM): 100%
- remaining binding at 10 µM (BRAF; 10 μM): 100%
- remaining binding at 5 µM (HIPK2; 5 μM): 100%
- remaining binding at 10 µM (HIPK2; 10 μM): 100%
- remaining binding at 5 µM (MERTK; 5 μM): 100%
- remaining binding at 10 µM (MERTK; 10 μM): 80%
- remaining binding at 5 µM (CDK9; 5 μM): 100%
- remaining binding at 10 µM (CDK9; 10 μM): 100%
- remaining binding at 5 µM (DCAMKL1; 5 μM): 100%
- remaining binding at 10 µM (DCAMKL1; 10 μM): 89%
- remaining binding at 5 µM (PRKG2; 5 μM): 88%
- remaining binding at 10 µM (PRKG2; 10 μM): 98%
